According to patent publication US20230014907A1, “INHIBITORS OF APOL1 AND METHODS OF USING SAME” (Vertex Pharmaceuticals Incorporated, priority 2020, published 2023):
pIC50: −log10 of the molar value.

Tests used:
[1] = target: T1, APOL1 G1 Protein (Homo sapiens, UniProt O14791, I384M/S342G); test: Trypanosoma brucei brucei Lysis Assay Using APOL1 Recombinant Protein (AlamarBlue viability); assay type: cell-based; conditions: read-out: Trypanosomal Assay (IC50)
T1 sequence (O14791 28-398 S342G/I384M): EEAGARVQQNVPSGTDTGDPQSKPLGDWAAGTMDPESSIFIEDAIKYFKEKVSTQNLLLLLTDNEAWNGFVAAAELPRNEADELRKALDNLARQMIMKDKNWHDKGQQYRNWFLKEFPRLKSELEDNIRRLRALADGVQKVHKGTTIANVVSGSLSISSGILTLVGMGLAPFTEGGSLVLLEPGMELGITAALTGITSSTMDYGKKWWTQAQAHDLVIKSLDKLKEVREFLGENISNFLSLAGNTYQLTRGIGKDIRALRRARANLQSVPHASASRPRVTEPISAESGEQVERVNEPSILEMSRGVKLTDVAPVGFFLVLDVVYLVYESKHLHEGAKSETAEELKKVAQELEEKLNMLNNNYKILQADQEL
In short: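 Lister 427 bloodstream-form trypanosomes seeded at 120,000 per well in phenol-red-free, serum-free medium and lysed with recombinant APOL1 variant protein. Viability read by AlamarBlue (resazurin) fluorescence. Percent viability relative to untreated wells, interpolated from a standard curve of seeded parasites.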

[2] = target: T2, G1 APOL1 (Homo sapiens, UniProt O14791, I384M/S342G); test: Acute APOL1 Thallium Assay with Inducible Stable Clones of HEK 293 Cells; assay type: cell-based; conditions: HEK 293 inducible stable clones, G1 APOL1; read-out: Thallium Assay (IC50)
T2 construct: expressed in transfected cells
T2 sequence (O14791 28-398 S342G/I384M): T1 sequence (O14791 28-398 S342G/I384M)
In short: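 HEK293 T-Rex cells with a stable tetracycline-inducible G1 APOL1 construct (clone DC3.25) were induced with tetracycline at plating, 26000 cells per well, then incubated at 37° C. They were loaded with an AM-ester thallium-sensitive dye and stimulated with Tl+. The fluorescence rise measured Tl+ influx through APOL1 pores.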

| pIC50 [2] | SMILES | pIC50 [1] |
| --- | --- | --- |
| < 6.00 | CCC(C)(CO)NC(=O)CCc1c(-c2ccc(F)cc2)[nH]c2ccc(F)cc12 (racemic) [Compound 62] | < 6.00 |
| < 6.00 | CC[C@@H](CO)NC(=O)CCc1c(-c2ccc(F)cc2)[nH]c2ccc(F)cc12 [Compound 80] | < 6.00 |
